From patent US20250163056A1, “NONMUSCLE MYOSIN II INHIBITORS” (The University of Florida Research Foundation, Inc., priority 2018, published 2025)

Assays:
METH-associated memory = experiment: METH-associated memory, conditioned place preference (CPP) assay; type: in vivo, mice and rats; settings: single intra-BLC or IP administration (IP 10 mg/kg)
Excerpt: In 2013, we published the finding that depolymerization of actin in the AMY disrupts the storage of METH-associated memories in a selective, retrieval-independent manner^65. Because of the limited clinical potential of actin depolymerizing agents, we turned to NMII, a molecular motor we previously found to be a key regulator of memory, synaptic plasticity (long-term potentiation [LTP]) and actin polymerization in dendritic spines^59 63. Through a series of experiments in a recently published studies, we detailed NMII's potential as a therapeutic target for SUD relapse^52,74-76.
(§1) The potential for systemic NMII inhibition to selectively target METH-associated memories in the way that intra-AMY administration does was also investigated. […] IP administered Blebbistatin also disrupts reconsolidation of memories for cocaine, nicotine and mephedrone, a result with additional potential therapeutic relevance in treating relapse^75-76. In addition, the BLC spine density increase that accompanies a METH-associated memory is reversed by Blebbistatin (FIG. 3C), without altering the spine density increase associated with a fear memory (FIG. 3D)^65, 74.

Male Sprague-Dawley rats = experiment: Cardiac safety assay 2: in vivo echocardiography with IV drug infusion; set-up: species or system rat
Excerpt: The first (results shown in Table 2) assesses the effects of our compounds on the contractility of cardiomyocytes. As the cardiac Ki increases, the contractility effects dramatically decrease. However, unlike in the adult heart, the hiPS cardiomyocytes used in this assay express NMII, which likely accounts for the residual contractility effects seen at the highest dose tested. For that reason, we moved to in vivo echocardiograms, which assess contractility in live animals (FIG. 7). […] Accordingly, the compounds of the invention and compounds used for practice of methods of the invention can produce less cardiac toxicity than does blebbistatin.
Male Sprague-Dawley rats are acclimated for approximately 1 week prior to use. Rats are lightly anesthetized using isoflurane and an intravenous catheter is placed for dosing purposes. Baseline 2-D echocardiograms are collected (standard SAX B-mode and M-mode at the level of the papillary muscle). Each rat receives a total of 3 IV treatments. Vehicle (10% DMSO, 10% Tween 80 and 80% water) is first administered, followed 10 minutes later by two subsequent infusions, separated by 10 minutes. Infusions of the positive control, Blebbistatin, are delivered at 0.5 mg/kg IV. […] Measurements including fractional shortening, ejection fraction, heart rate and cardiac output are calculated.

[1] = Brain and plasma distribution after IP dosing; type: in vivo, mice; settings: 10 mg/kg
Experimental: FIG. 4: Brain and plasma distribution of blebbistatin after IP dosing at 10 mg/kg in mice.
as §1

Rabbit skeletal myosin = experiment: Skeletal muscle myosin II actin-activated ATPase assay; type: biochemical; settings: 20 nM skeletal muscle myosin II; read-out: SKMMII KI
Procedure, shortened: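 Inhibitory constants come from a quadratic one-site fit of 16-point, triplicate dose-response data, highest compound concentration 50 uM. Rates are slopes of NADH fluorescence decline over 30 min, coupling ATP turnover of 20 nM rabbit skeletal myosin II with 10 μM actin and 1 mM ATP via PK/LDH, pH 7.0, 25 °C.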

various myosin IIs = settings: reported in the literature; read-out: biochemical IC50 values in various myosin IIs; cited from earlier work
[2] = Photostability, percentage remaining undegraded under illumination or in the dark

Cc1ccc2c(c1)C(=O)[C@]1(O)CCN(c3ccccc3)C1=N2 [Blebbistatin, reference compound]
METH-associated memory (METH-associated memory; listed as Blebb): disrupt a METH-associated memory | METH-associated memory (METH-associated memory; listed as blebbistatin): disrupted | contractility effects in in vivo echocardiograms (Male Sprague-Dawley rats): substantial contractility effects | brain levels [1]: 90 µM | Ki (Rabbit skeletal myosin): 360 nM | IC50 (various myosin IIs): 1800 to 9000 nM | Photostability 4 hours ([2]; percentage remaining undegraded after 4 hours illumination): 82.9% | Photostability 24 hours ([2]; percentage remaining undegraded after 24 hours illumination): 9.3% | Photostability Dark (24 h) ([2]; percentage remaining undegraded in the dark, 24 h): >99%
